In patent US20110263423A1, “Plant Health Composition” (BASF SE, priority 2008, published 2011):

Tests used:
Assay type in all cases: in vivo
Soybeans (M-SOY 6001 RR) = experiment: Soybean field trial Brazil, ternary mixture, Colby synergism (Example 7); conditions: soybean M-SOY 6001 RR, Ia 40, epoxiconazol 40, pyraclostrobin 65 g a.i./ha
Protocol: Soybeans were grown in 2008 at the CEDUP “Caetano Vieira da Costa” in Sao José do Cerrito, Santa […], Brazil. The variety M-SOY 6001 RR was planted in 2007, 11 Nov., at a seeding rate of 300.000 plants per ha. Row spacing was 50 cm. The trial was setup as a randomized bloc design with 4 replications. Plot size was 12.5 m^2. Fungicide treatments were applied at BBCH GS 70-79 (pods reached 15-20 mm of final […]). The fungicides were used as formulations. Compound Ia was applied as an EC formulation (62.5 g/L-EC) at 0.64 L/ha (40 g ai/ha). […] The adjuvant DASH HC was added to the spray tank with 0.3% (v/v). Finally, compound Ia was applied in a mixture together with epoxiconazol and pyraclostrobin forming a ternary mixture according to the present invention, using a coformulation of all three compounds (50 g/L of compound Ia+50 g/L of epoxiconazol+81 g/L of pyraclostrobin-EC). This formulation was sprayed at a rate of 0.8 […] compound […] epoxiconazol+65 g a.i./ha pyraclostrobin). The formulations were diluted in water. Total spray volume for foliar application was 150 L/ha. The trial was conducted under low disease pressure. […] Plots were harvested at maturity of the soybean crop and the yield (thousand grain weight) was determined (table 11). The efficacy in yield increase was calculated as % increase of the Thousand Grain Weight (TGW) by the treatments compared to the untreated control. […]

[1] = system: spring wheat (cv. Passat); experiment: Spring wheat pot trial, optimal water supply (Example 1)
Protocol: Mitcherlich pots of known weight were filled with 5.5 kg of sandy dry soil (pH 6.8) and fertilized (P, K and Mg) to optimal growing conditions. The culture was spring wheat (cv. Passat); 12 plants per pot. The experiment was conducted with 6 replications in a vegetation hall. Experiments were carried out under semi controlled conditions at very low disease-pressure with insignificant infection rates, protected from any undesired rain or water impact. The water consumption of each pot was calculated on the basis of the recorded measurements of the weight of the pots prior to each irrigation event up to the defined set point.
(§1) Nitrogen fertilizer (totally 1.75 g N/pot) was added in equal amounts at 3 stages to allow optimal growth conditions throughout the life cycle. All plants/pots were grown at optimal water supply by watering 2-3 times a day to 60% of the water holding capacity of the soil.
Compound Ia (62.5 g/L, 2 L in 400 L water/ha) was applied at growth stage 39/49 (BBCH scale), which is an EC formulation of compound Ia. Control plants were not treated.
Plant Height, as an indicator of plant vigor, was measured after heading. At maturity of the plants the grain, as an indicator of yield, was harvested and uniformly dried to 5% moisture content. Straw yield, as an another indicator of plant yield, was also determined and the number of halms with ear per pot was counted at maturity. Number of grains per pot was counted after harvest. Thousand Grain Weight (TGW), as yet another indicator of plant yield, was calculated based on grain yield per pot and number of grains per pot.

[2] = system: spring wheat (cv. Passat); experiment: Spring wheat pot trial, severe drought stress (Example 2)
Protocol: Spring wheat (cv. Passat) was cultivated in Mitcherlich pots as described above in example 1. The experiment was conducted with 6 replications in a vegetation hall. Experiments were carried out under semi controlled conditions at very low disease-pressure with insignificant infection rates, protected from any undesired rain or water impact. The water consumption of each pot was calculated on the basis of the recorded measurements of the weight of the pots prior to each irrigation event up to the defined set point.
as §1, with “soil until growth stage 55 (BBCH). Then, pots were only watered to 60% of the maximum water holding capacity of the soil after clear water stress symptoms on the plants were visible to apply severe drought stress.” for “soil.”
Compound Ia (62.5 g/l, 2 L in 400 L water/ha) was applied at growth stage 39/49 (BBCH scale), which is an EC formulation of compound Ia. Control plants were not treated.
After ripening of the plants, the grain was harvested and uniformly dried to 5% moisture content. Grain yield per pot, grain yield per ear, number of grains per ear and number of grains per pot were determined as indicators of plant vigor and plant yield. The relation of grain yield to straw added to the grain yield was used to calculate the harvest index.

Maize (Dekalb RX940) = experiment: Maize field trial, Dinuba 2008 (Example 5)
Protocol: Maize was grown in 2008 in a field trial at the BASF experimental station in Dinuba, 10181 Avenue 416, Calif., U.S.A. The variety Dekalb RX940 was planted at a seeding rate of 10 plants/m^2. Four rows per plot were planted with a row spacing of 0.75 m. The trial was setup as a randomized bloc design with 5 replications, each. Plot size was 43 m^2. Compound Ia was used as an EC formulation (62.5 g a.i./L) with a dose rate of 0.8 L per hectar (50 g a.i./ha). The formulation was applied in a total spray volume of 400 L/ha. Compound Ia was sprayed at a growth stage 51/55 (BBCH) with a tractor mounted spray boom with VS11003 spray nozzles at 3 bar spray pressure.
No disease symptoms were visible at the application time and no symptoms were detected at later stages.
Green leaf area, as an indicator of plant vigor, was assessed beginning of ripening by estimating the green leaf area in 10 randomly chosen plants per plot.
At maturity the grain was harvested and the grain yield per plot, as an indicator of plant yield, was determined (kg/plot). Finally, the grain yield per hectare, as an aditional indicator of plant yield, was calculated (dt/ha). Furthermore, the Thousand Grain Weight (TGW) was determined in the second trial (Crow C300 42).

[3] = severe drought stress from BBCH 55, 2 L/ha EC at BBCH 39/49

## Cn1cc(C(=O)Nc2ccccc2-c2cc(F)c(F)c(F)c2)c(C(F)F)n1 [Compound Ia, N-(3′,4′,5′-trifluorobiphenyl-2-yl)-3-difluoromethyl-1-methyl-1H-pyrazole-4-carboxamide]
Soybeans (M-SOY 6001 RR)
  Observed efficacy (% increase of TGW vs untreated control): 0%
Soybeans (M-SOY 6001 RR); BBCH 70-79
  TGW: 153 g
[1]; 2 L/ha EC at BBCH 39/49
  Grain yield/pot, change vs untreated control: (+6%)
  Number of halms with ear/pot, change vs untreated control: (+16%)
  Plant height, change vs untreated control: (+2%)
  Straw yield: 70.0 g/pot
  Straw yield, change vs untreated control: (+6%)
  TGW (Thousand Grain Weight): 32.0 g
  TGW, change vs untreated control: (+2%)
[1]; 2 L/ha EC at BBCH 39/49, at maturity
  Number of halms with ear/pot: 37.5
[1]; 2 L/ha EC at BBCH 39/49, grain dried to 5% moisture
  Grain yield/pot: 74.2 g/pot
[1]; EC 62.5 g/L, 2 L in 400 L water/ha at BBCH 39/49, measured after heading
  Plant height: 76.2 cm
[2]; severe drought stress
  Harvest index, change vs untreated control: (+3%)
  Number of grains per ear, change vs untreated control: (+3%)
  Single ear grain yield, change vs untreated control: (+3%)
[2]; [3]
  Harvest index (grain yield g/grain + straw yield g): 0.42
  Number of grains per ear: 49.9
  Single ear grain yield: 1.31 g/ear
Maize (Dekalb RX940); 50 g a.i./ha
  Grain yield, increase as % of untreated: (+4.5%)
  TGW, increase as % of untreated: (+3.3%)
Maize (Dekalb RX940); 50 g a.i./ha at BBCH 51/55
  Grain yield: 154.7 dt/ha
  TGW: 317.0 g
Maize (Dekalb RX940); 50 g a.i./ha at BBCH 51/55, beginning of ripening
  % Green leaf area: 49.0%
Maize (Dekalb RX940); 50 g a.i./ha, listed as compound Ia
  Grain yield, increase as % of untreated: 4.5%
